# Measured values reported in US11192849B2, “Compounds, compositions, and methods for modulating ferroptosis and treating excitotoxic disorders” (THE TRUSTEES OF COLUMBIA UNIVERSITY IN THE CITY OF NEW YORK, priority 2013, dated 2021).
# Entries after “also recorded” stand apart in the source; their conditions may differ. Like-named read-outs stand apart in the source and are kept apart here.
# Assays:
# HT-1080 cells [1] = test: Inhibition of erastin (10 μM)-induced death in HT-1080 cells (Alamar Blue); assay type: cell-based, human; conditions: for EC50: Homo sapiens
# In short: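 HT-1080 cells (1,000/well) were treated next day with 10 μM erastin plus a compound dilution series for 24 h. Alamar Blue (10% final) was then added for 6 h and fluorescence read at ex/em 530/590.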
# [2] = tested on: mouse kidney proximal tubules; test: Hydroxyquinoline + iron induced cell death in isolated mouse kidney proximal tubules (LDH release); assay type: cell-based; conditions: 10 μM hydroxyquinoline and ferrous ammonium sulfate, 60 min
# Procedure: Tubule preparation: 8-12 week old C57/BL6 female mice were euthanized with isoflurane. […] The cortices were then dissected and minced on an ice cold tile, then resuspended in additional Solution A for 8-10 min. of digestion at 37° C. followed by enrichment of proximal tubules using centrifugation on self-forming Percoll gradients as previously described for rabbit tubules.
# Experimental procedures for isolated tubules: Tubules were suspended at 1.5-2.0 mg tubule protein/ml in a 95% air/5% CO2-gassed medium containing (in mM) 110 NaCl, 2.6 KCl, 25 NaHCO3, 2.4 KH2PO4, 1.25 CaCl2, 1.2 MgCl2, 1.2 MgSO4, 5 glucose, 4 sodium lactate, 0.3 alanine, 5 sodium butyrate, 2 glycine, and 1.0 mg/ml bovine gelatin (75 bloom) (Solution B). After precincubation for 15 min. at 37° C., then were then resuspended in fresh Solution B containing 2 mM heptanoic acid instead of sodium butyrate along with experimental compounds.
# In addition, the efficacy of Fer-1, SRS11-92, and selected analogs was tested in a model of iron-induced cell death in freshly isolated mouse kidney proximal tubules that simulates major elements of rhabdomyolysis-induced acute kidney injury (FIG. 15C). Cell death in this model is known to involve oxidative lipid damage (Sogabe, et al., 1996, Park, et al., 2011); it was therefore believed that Fer-1 might be protective. 10 μM each of hydroxyquinoline and ferrous ammonium sulfate (HQ+Fe) were used to induce cell death, which was quantified by monitoring LDH release after 60 min. […] By implication, cell death in these models may involve, at least in part, the induction of lipid peroxidation and perhaps ferroptosis.
# HT-1080 cells [3] = test: Mitochondrial ROS (MitoSOX) in HT-1080 cells; assay type: cell-based, human; conditions: rotenone 250 nM, 3 hr, Fer-1 1 μM
# Procedure: 200,000 HT-1080 cells were seeded into 6-well dishes (Corning). The next day, cells were treated with +/−rotenone +/−ferrostatin-1 for 3 hours (for MitoSOX experiments) or +/−STS +/−ferrostatin-1 for 4 hours (for 10-N-nonylacridine orange [NAO] experiments), harvested by trypsinization and analyzed as follows. For the analysis of mitochondrial ROS, cells were incubated with 5 μM MitoSOX (Molecular Probes/Invitrogen) in HBSS for 10 minutes in the dark at 37° C. […] MitoSOX data were collected in the FL2 channel and NAO data was collected in the FL1 channel. Data are from three independent biological replicates of each experiment. Data were analyzed by one-way ANOVA with Bonferroni's post-hoc test.
# A minimum of 10,000 cells were analyzed per condition.
# HT-1080 cells [4] = test: Acridine orange relocalization (lysosomal membrane permeabilization) in HT-1080 cells; assay type: cell-based, human; conditions: acridine orange re-localization
# Procedure: 200,000 HT-1080 cells were seeded into 6-well dishes (Corning). The next day, cells were incubated with 25 ng/mL of AO for 15 minutes, then medium was removed and cells were incubated in growth medium for 15 minutes. […] Relocalization of AO from lysosomes (discrete red puncta) to the cytosol (diffuse green color) was determined using an EVOS fl digital inverted fluorescent microscope (Advanced Microscopy Group) equipped with GFP (ex/em 470/525) and RFP (ex/em 531/593) light cubes.
# HT-1080 cells [5] = test: Effect of Fer-1 on the lethality of various compounds in HT-1080 cells; assay type: cell-based, human; conditions: resynthesized Fer-1 (0.5 μM)
# Procedure: The comparative analysis of the lethal effects of various molecules was conducted as above for the inhibitors experiment with the following modifications. All lethal molecules were tested in a ten point, two-fold dilution series. Inhibitors were made in media at 1× final concentration. The growth media was removed from the plates, and 36 μL media+inhibitor (or DMSO) was added back to the plate+4 μL from the 10× lethal stock plate. Cell viability and modulatory effects (Me) were computed as above, to obtain the maximum deviation from BExp produced by each modulator across the different lethal small molecule concentrations.
# [6] = tested on: C57BL/6 mice, kidney ischemia-reperfusion injury; test: Kidney model of ischemia-reperfusion injury (IRI); assay type: in vivo
# Procedure: As an initial in vivo study, the effects of Fer-1 and SRS16-86 on serum creatinine, a marker of kidney damage, were evaluated in an ischemia reperfusion injury (IRI) model of kidney failure (FIG. 21).
# Organs were dissected as indicated in each experiment and infused with 4% (vol/vol) neutral-buffered formaldehyde, fixated for 48 h, dehydrated in a graded ethanol series and xylene, and finally embedded in paraffin. Stained sections were analyzed using an Axio Imager microscope (Zeiss). Kidney damage was quantified by two experienced pathologists in a double-blind manner on a scale ranging from 0 (unaffected tissue) to 10 (severe organ damage). The following parameters were chosen as indicative of morphological damage to the kidney after ischemia-reperfusion injury (IRI): brush border loss, red blood cell extravasation, tubule dilatation, tubule degeneration, tubule necrosis, and tubular cast formation. These parameters were evaluated on a scale of 0-10, which ranged from not present (0), mild (1-4), moderate (5 or 6), severe (7 or 8), to very severe (9 or 10). Each parameter was determined on at least four different animals.
# Induction of kidney IRI was performed via a midline abdominal incision and a bilateral renal pedicle clamping for either 40 min (severe IRI, or “lethal-to-WT” IRI) or 50 min (ultra-severe IRI) using microaneurysm clamps (Aesculab). Throughout the surgical procedure, the body temperature was maintained between 36° C. and 37° C. by continuous monitoring using a temperature-controlled self-regulated heating system (Fine Science Tools). After removal of the clamps, reperfusion of the kidneys was confirmed visually. The abdomen was closed in two layers using standard 6-0 sutures. Sham-operated mice underwent the identical surgical procedures, except that microaneurysm clamps were not applied. To maintain fluid balance, all of the mice were supplemented with 1 mL of prewarmed PBS administered intraperitoneally directly after surgery. All mice were killed 48 h after reperfusion for each experiment. […] All ischemia-reperfusion experiments were performed in a double-blinded manner.
# HT-1080 cells [7] = test: HT-1080 cell proliferation (Vi-Cell); assay type: cell-based, human; conditions: over 48 hours
# Procedure: Cell viability was typically assessed in 384-well format by Alamar Blue (Invitrogen) fluorescence (ex/em 530/590) measured on a Victor3 platereader (Perkin Elmer, Waltham, Mass.). In some experiments, Trypan Blue dye exclusion counting was performed using an automated cell counter (ViCell, Beckman-Coulter Inc., Brea, Calif.). Cell viability in test conditions is reported as a percentage relative to the negative control treatment.
Structure (SMILES),"fold more potent than the parent Fer-1 (HT-1080 cells [1]; HT-1080, erastin (10 μM)) [fold]","potency compared with Fer-1 (HT-1080 cells [1]; HT-1080, erastin (10 μM))","EC50 (HT-1080 cells [1]; HT-1080, Example 15, erastin (10 μM), HT-1080, read-out: EC50) [nM]","EC50 (HT-1080 cells [1]; HT-1080, SI Table 6, read-out: EC50) [nM]","EC50 (HT-1080 cells [1]; HT-1080, SI Table 7, read-out: EC50) [nM]",HQ+Fe induced lethality (LDH release) [2],accumulation of mitochondrial superoxide in response to rotenone (HT-1080 cells [3]),lysosomal membrane destruction in response to H2O2 (HT-1080 cells [4]),"EC50 (HT-1080 cells [1]; HT-1080, SI Table 2, analogs with various hydrophobic moieties) [nM]","EC50 (HT-1080 cells [1]; HT-1080, SI Table 5) [nM]","EC50 (HT-1080 cells [1]; HT-1080, SI Table 8) [nM]","EC50 (HT-1080 cells [1]; HT-1080, Table 1 (Example 10), erastin (10 μM)-treated HT-1080 cells) [nM]",prevention of erastin-induced death (HT-1080 cells [1]; erastin-treated HT-1080 cells),specificity of death inhibition among lethal compounds (HT-1080 cells [5]),serum creatinine in IRI model of kidney failure ([6]; 2 mg/kg IP 30 minutes prior to induction of IRI),"functional acute renal failure and structural organ damage after severe IRI ([6]; 40 min ischemia, 48 h after reperfusion, 2 mg/kg i.p.)",HT-1080 cell proliferation (HT-1080 cells [7])
"CCOC(=O)c1ccc(NC2CCCCC2)c(NCc2ccccc2)c1 [SRS11-92, ethyl 3-(benzylamino)-4-(cyclohexylamino)benzoate]",15,more potent than Fer-1,6,6,6,prevented lethality,–,–,–,–,–,–,–,–,–,–,–
"CCOC(=O)c1ccc(NC2CCCCC2)c(N)c1 [SRS8-28 (Fer-1), ethyl 3-amino-4-(cyclohexylamino)benzoate]",–,–,–,–,–,prevented lethality; also recorded: protective,did not prevent,did not prevent,95,88,88,95,suppressed erastin-induced death,"specifically inhibited RSL-induced death, but not cell death induced by other oxidative lethal compounds and apoptosis-inducing agents",effective,protected from functional acute renal failure,did not inhibit ERK phosphorylation or arrest the proliferation of HT-1080 cells
